Experimental data reported in paper PMC12951568, “Identifying Structural Factors Governing the Photodynamic Activity of Phthalocyanines” (Journal of Medicinal Chemistry, 2026).
Where two headings read alike, the source gives them in different places.

How the values were obtained:
[1] = target: bovine serum albumin (BSA) (Bos taurus, UniProt P02769); assay: Interaction with bovine serum albumin (absorption and emission spectra in PBS); assay type: binding; details: 1 μM Pc in PBS, BSA 17.5, 35 and 100 μM
[2] = Quantum yield of singlet oxygen production, comparative method with DPBF scavenger; assay type: physicochemical; details: in DMF, ZnPc as reference
Description: Eight μL of the 100 μM stock solution of the dye in DMF (or DMF + water or water; see above) was added. A xenon lamp (100 W, ozone free XE DC short arc lamp, New port) was used to irradiate the sample while stirring. The incident light was filtered through a water filter (6 cm) and cut off filter OG530 eliminating heat and light under 523 nm, respectively. […] The decrease of DPBF in solution with irradiation time was monitored at 415 nm. The values of ΦΔ of the dyes were calculated by the following equation: φΔS=φΔ[…] is the slope of the plot of the dependence of ln([…] 0 and A t being the absorbances of the DPBF at 415 nm before irradiation and after irradiation time t, respectively. I aT is the total amount of light absorbed by the dye sample. Superscripts R and S indicate the reference and sample, respectively. I aT is calculated as a sum of intensities of the absorbed light I a at wavelengths from 523 to 850 nm (step 0.5 nm). Light under 523 nm is completely filtered by an OG530 filter, and light above 850 nm is not absorbed by the studied dye sample. I a at a given wavelength is calculated using Beer-Lambert'[…]) where I 0 is transmittance of the filter at the given wavelength and A is the absorbance of the dye at this wavelength. All experiments were performed three times, and the data presented is the mean value of the three obtained results with estimated error ± 10%.

[3] = Fluorescence quantum yield, comparative method; assay type: physicochemical; details: in DMF; ZnPc as reference
Description: The fluorescence quantum yields (ΦF) were determined by a comparative method with ZnPc as the reference (ΦF = 0.32 in THF). The ΦF values were calculated using the following formula: ϕFS=ϕFR(F^S/F^R)(1−10^−A^R/1−10^−A^S)(η^S/η^R)^2 where F is the integrated area under the emission spectrum and A is the absorbance at the excitation wavelength. Superscripts R and S indicate the reference and sample, respectively. η stands for the refractive index of the solvent. Absorption in the Q-band was kept below 0.05 to eliminate the inner filter effect. Excitation wavelengths were the same as those used for emission spectra (see above). The emission wavelengths were set to their emission maxima to avoid exceeding the detector limit with stimated error ± 15%.

[4] = system: MCF-7 (human breast adenocarcinoma); assay: Photodynamic activity (phototoxicity, neutral red uptake) on MCF-7; assay type: cell-based; details: 12 h incubation, Xe-lamp 15 min, λ > 570 nm, 11.2 J/cm^2; mean ± SD; t.w. = this work
Description: (§1) Detailed in vitro studies involving subcellular localization and determination of the EC50 in three different cell lines (human cervical carcinoma–HeLa, human breast adenocarcinoma–MCF-7, and human skin melanoma–SK-MEL-28) were performed. A broadband light source (ozone-free 450 W Xe-lamp, Newport) equipped with the long-pass filter Schott OG570 was used (12.4 mW/cm^2, 15 min, 11.2 J/cm^2).
(§2) For the cytotoxicity experiments (phototoxicity), cells were seeded at 100 μL per well into 96-well plates (TPP, Switzerland) at a density of 7.5 × 10^3 (HeLa) or 1.0 × 10^4 (MCF-7 and SK-MEL-28) cells per well. Cells were left to grow for 24 h (until they reached confluency) in a controlled environment of a CO2 incubator (37 °C, 5% CO2 atmosphere, constant high humidity). Subsequently, studied compounds were added in a wide concentration range and incubated with the cells for 12 h. Cells were washed; fresh cell culture medium was added, and the cells were irradiated using a 450 W Xe lamp (Newport, USA). The lamp was equipped with a long pass filter (Newport OG570) and an 8 cm water filter (λ > 570 nm, 12.4 mW/cm^2, 15 min, 11.2 J/cm^2). Cellular viability was assessed after an additional 24 h by the neutral red (NR; Sigma, Merck, USA) uptake assay. At least three independent experiments, each in triplicate, were performed. The soluble NR was measured at λ = 540 nm using a Tecan Infinite 200 M plate reader (Tecan, Austria). The viability of each experimental group was expressed as the percentage of the untreated cells (100% viability) after subtraction of the signal from cells treated with a lethal dose of hydrogen peroxide (0% viability). […] EC50 values were calculated, and graphs were created by using GraphPad Prism 10.3.1 (Graph Pad software, USA).

[5] = system: SK-MEL-28 (human skin melanoma); assay: Photodynamic activity (phototoxicity, neutral red uptake) on SK-MEL-28; assay type: cell-based; details: 12 h incubation, Xe-lamp 15 min, λ > 570 nm, 11.2 J/cm^2; mean ± SD; t.w. = this work
Description: as §1, §2

[6] = Log P, partition between n-octanol and PBS; assay type: physicochemical
Description: 400 μL portion of n-octanol and 400 μL of PBS buffer were mixed in a plastic Eppendorf vial. Then, 20 μL of the 100 μM stock solution of the sample (see above) was added to this mixture, vortexed for 5 min at rt, and then centrifuged for 10 min (10 000 rpm, rt). 50 μL of each of these layers was taken into 2.5 mL of DMF in a quartz cuvette, and their emission spectra (excitation wavelengths in Table ) were recorded. The log P value was then computed using the area under the curve of the emission spectra of n-octanol (F oct) and PBS buffer (F PBS) layers as follows: logP=log(Foct/FPBS) Triplicate measurements were performed, and the data reported are the mean of the obtained results.

[7] = Absorption and fluorescence emission spectra in DMF; assay type: physicochemical; details: for ε, extinction coefficient / λA, absorption maximum in the Q-band / λF, fluorescence emission maximum: in DMF
Description: An absorption spectrum of 2.475 mL of solvent (water, DMF, or PBS) was taken (i.e., absorption spectrum of baseline); then, 25 μL of stock solution was added to reach the final concentration of 1 μM in the cuvette, and the absorption and emission spectra were taken. Baseline of the solvent was subtracted from the obtained absorption spectrum to get the final absorption spectrum of the sample.

[8] = system: HeLa (human cervical carcinoma); details: ref number not given, cited from earlier work
[9] = Fluorescence lifetime in DMF; assay type: physicochemical
From the text: 1 Photophysical Data of Investigated Derivatives in DMF ^a | column: τF1/ns; τF2/ns

[10] = partition coefficient between 1-octanol and PBS

Chain of bovine serum albumin (BSA) (P02769 25-607): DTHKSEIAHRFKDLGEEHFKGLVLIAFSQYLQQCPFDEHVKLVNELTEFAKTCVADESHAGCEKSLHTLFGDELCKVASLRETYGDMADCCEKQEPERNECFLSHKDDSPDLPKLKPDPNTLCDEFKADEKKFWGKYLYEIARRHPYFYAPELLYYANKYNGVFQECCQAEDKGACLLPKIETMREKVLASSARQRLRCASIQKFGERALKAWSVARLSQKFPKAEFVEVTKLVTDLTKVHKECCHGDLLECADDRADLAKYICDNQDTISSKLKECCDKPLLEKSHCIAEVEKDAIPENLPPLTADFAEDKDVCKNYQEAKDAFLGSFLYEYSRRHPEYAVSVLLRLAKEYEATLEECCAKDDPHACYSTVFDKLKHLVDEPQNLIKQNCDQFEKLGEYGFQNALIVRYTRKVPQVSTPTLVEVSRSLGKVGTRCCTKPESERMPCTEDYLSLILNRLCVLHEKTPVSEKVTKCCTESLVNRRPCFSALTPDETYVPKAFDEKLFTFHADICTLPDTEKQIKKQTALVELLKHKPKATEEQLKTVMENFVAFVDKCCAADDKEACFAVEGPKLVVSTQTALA

Row | τF1, fluorescence lifetime (relative amplitude in brackets) [9] | τF2, fluorescence lifetime (relative amplitude in brackets) [9] | Log P [6] | blueshift of the Q-band vs corresponding Pc analogue ([7]; pyrazine analogs vs A4Zn and N6Zn, DMF) | Structure (SMILES) | Interaction with BSA: disaggregation/monomerization and changes in absorption and fluorescence emission spectra [1] | ΦΔ, quantum yield of singlet oxygen production [2] | ΦF, fluorescence quantum yield [3] | EC50 [4] | EC50 [5] | Log P [6, 10] | ε, extinction coefficient [7] | λA, absorption maximum in the Q-band [7] | λF, fluorescence emission maximum [7] | quenching of excited states upon BSA addition (decrease in Q-band maximum and fluorescence intensity) [1] | EC50 ([8]; 12 h incubation, Xe-lamp 15 min, λ > 570 nm, 11.2 J/cm^2, mean ± SD, determined previously under the same conditions at the same workplace and published, read-out: EC50 (nM) HeLa) | EC50 ([8]; same irradiation conditions, previously published per Table 2, read-out: EC50 (HeLa))
1 | – | – | – | – | C[n+]1cccc(Oc2ccc3c(c2)C2=NC3=Nc3c4cc(Oc5ccc[n+](C)c5)ccc4c4[n]3[Zn][n]3c(c5ccc(Oc6ccc[n+](C)c6)cc5c3=NC3=NC(=N4)c4cc(Oc5ccc[n+](C)c5)ccc43)=N2)c1 [C5Zn] | slight decrease in the absorption band (without a shift in the spectrum) but was accompanied by a slight increase in the fluorescence intensity | – | – | – | – | – | – | – | – | – | – | –
2 | – | – | – | – | O=S(=O)([O-])c1ccc(Oc2cccc3c2C2=Cc4c5cccc(Oc6ccc(S(=O)(=O)[O-])c7cccnc67)c5c5[n]4[Zn][n]4c(c6cccc(Oc7ccc(S(=O)(=O)[O-])c8cccnc78)c6c4=CC3=N2)=CC2=NC(=C5)c3cccc(Oc4ccc(S(=O)(=O)[O-])c5cccnc45)c32)c2ncccc12.[Na+].[Na+].[Na+].[Na+] [A8Zn] | complete | 0.69 | 0.26 | 2470 ± 810 nM | 1200 ± 280 nM | –3.64 | 197 610 M^–1cm^–1 | 696 nm | 708 nm | – | – | –
3 | – | – | – | – | O=C([O-])c1cc(C(=O)[O-])cc(-c2nc3c(nc2-c2cc(C(=O)[O-])cc(C(=O)[O-])c2)C2=Nc4c5nc(-c6cc(C(=O)[O-])cc(C(=O)[O-])c6)c(-c6cc(C(=O)[O-])cc(C(=O)[O-])c6)nc5c5[n]4[Zn][n]4c(c6nc(-c7cc(C(=O)[O-])cc(C(=O)[O-])c7)c(-c7cc(C(=O)[O-])cc(C(=O)[O-])c7)nc6c4=NC4=NC(=N5)c5nc(-c6cc(C(=O)[O-])cc(C(=O)[O-])c6)c(-c6cc(C(=O)[O-])cc(C(=O)[O-])c6)nc54)=NC3=N2)c1.[Na+].[Na+].[Na+].[Na+].[Na+].[Na+].[Na+].[Na+].[Na+].[Na+].[Na+].[Na+].[Na+].[Na+].[Na+].[Na+] [A5Zn] | slight bathochromic shift in the Q-band accompanied by partial quenching of the excited states | 0.21 | 0.03 | – | – | –3.27 | 138 740 M^–1cm^–1 | 659 nm | 675 nm | significant | 5700 ± 1100 nM | –
4 | 1.04 (3%) ns | 3.17 (97%) ns | – | – | Cc1cc(OCc2cn(CCOCCOCCO)nn2)c(Oc2cc3c(cc2Oc2c(OCc4cn(CCOCCOCCO)nn4)cc(C)cc2OCc2cn(CCOCCOCCO)nn2)C2=Nc4c5cc(Oc6c(OCc7cn(CCOCCOCCO)nn7)cc(C)cc6OCc6cn(CCOCCOCCO)nn6)c(Oc6c(OCc7cn(CCOCCOCCO)nn7)cc(C)cc6OCc6cn(CCOCCOCCO)nn6)cc5c5[n]4[Zn][n]4c(c6cc(Oc7c(OCc8cn(CCOCCOCCO)nn8)cc(C)cc7OCc7cn(CCOCCOCCO)nn7)c(Oc7c(OCc8cn(CCOCCOCCO)nn8)cc(C)cc7OCc7cn(CCOCCOCCO)nn7)cc6c4=NC4=NC(=N5)c5cc(Oc6c(OCc7cn(CCOCCOCCO)nn7)cc(C)cc6OCc6cn(CCOCCOCCO)nn6)c(Oc6c(OCc7cn(CCOCCOCCO)nn7)cc(C)cc6OCc6cn(CCOCCOCCO)nn6)cc54)=NC3=N2)c(OCc2cn(CCOCCOCCO)nn2)c1 [N6Zn] | – | 0.46 | 0.26 | – | – | – | 237 520 M^–1cm^–1 | 681 nm | 690 nm | – | – | 69700 nM
5 | 0.74 (5%) ns | 2.45 (95%) ns | –1.60 | 35 nm | Cc1cc(OCc2cn(CCOCCOCCO)nn2)c(Oc2nc3c(nc2Oc2c(OCc4cn(CCOCCOCCO)nn4)cc(C)cc2OCc2cn(CCOCCOCCO)nn2)C2=Nc4c5nc(Oc6c(OCc7cn(CCOCCOCCO)nn7)cc(C)cc6OCc6cn(CCOCCOCCO)nn6)c(Oc6c(OCc7cn(CCOCCOCCO)nn7)cc(C)cc6OCc6cn(CCOCCOCCO)nn6)nc5c5[n]4[Zn][n]4c(c6nc(Oc7c(OCc8cn(CCOCCOCCO)nn8)cc(C)cc7OCc7cn(CCOCCOCCO)nn7)c(Oc7c(OCc8cn(CCOCCOCCO)nn8)cc(C)cc7OCc7cn(CCOCCOCCO)nn7)nc6c4=NC4=NC(=N5)c5nc(Oc6c(OCc7cn(CCOCCOCCO)nn7)cc(C)cc6OCc6cn(CCOCCOCCO)nn6)c(Oc6c(OCc7cn(CCOCCOCCO)nn7)cc(C)cc6OCc6cn(CCOCCOCCO)nn6)nc54)=NC3=N2)c(OCc2cn(CCOCCOCCO)nn2)c1 [N7Zn] | – | 0.58 | 0.18 | – | – | – | 195 490 M^–1cm^–1 | 629 nm | 641 nm | – | – | –

Row | Structure (SMILES) | τF1, fluorescence lifetime (relative amplitude in brackets) [9] | τF2, fluorescence lifetime (relative amplitude in brackets) [9] | Log P [6] | blueshift of the Q-band vs corresponding Pc analogue ([7]; pyrazine analogs vs A4Zn and N6Zn, DMF) | Interaction with BSA: disaggregation/monomerization and changes in absorption and fluorescence emission spectra [1] | ΦΔ, quantum yield of singlet oxygen production [2] | ΦF, fluorescence quantum yield [3] | EC50 [4] | EC50 [5] | Log P [6, 10] | ε, extinction coefficient [7] | λA, absorption maximum in the Q-band [7] | λF, fluorescence emission maximum [7] | quenching of excited states upon BSA addition (decrease in Q-band maximum and fluorescence intensity) [1] | EC50 ([8]; 12 h incubation, Xe-lamp 15 min, λ > 570 nm, 11.2 J/cm^2, mean ± SD, determined previously under the same conditions at the same workplace and published, read-out: EC50 (nM) HeLa) | EC50 ([8]; same irradiation conditions, previously published per Table 2, read-out: EC50 (HeLa))
6 | O=S(=O)([O-])c1ccc(Oc2ccc3c(c2)C2=Cc4c5ccc(Oc6ccc(S(=O)(=O)[O-])c7cccnc67)cc5c5[n]4[Zn][n]4c(c6ccc(Oc7ccc(S(=O)(=O)[O-])c8cccnc78)cc6c4=CC3=N2)=CC2=NC(=C5)c3ccc(Oc4ccc(S(=O)(=O)[O-])c5cccnc45)cc32)c2ncccc12.[Na+].[Na+].[Na+].[Na+] [A6Zn] | 3.14 ns | – | – | – | partial | 0.58 | 0.28 | – | – | –2.89 | 122 420 M^–1cm^–1 | 681 nm | 692 nm | – | – | –
